In ChEMBL document CHEMBL2406918, “Controlling persister cells of Pseudomonas aeruginosa PDO300 by (Z)-4-bromo-5-(bromomethylene)-3-methylfuran-2(5H)-one” (2013):
Activity calls are given as the source filed them. No cut-off for these calls is given here.

Experiments:
[1] = tested on: Pseudomonas aeruginosa; assay: Antibacterial activity against Pseudomonas aeruginosa PDO300 assessed as reduction in biofilm formation at 60 ug/ml after 18 hrs by drop plate method relative to control; format: functional; design: scale not given: the % may be the effect or the level left
[2] = tested on: Pseudomonas aeruginosa; assay: Antibacterial activity against Pseudomonas aeruginosa PDO300 assessed as reduction in persistence at 30 ug/ml after 12 hrs by drop plate method relative to control; format: functional; design: scale not given: the % may be the effect or the level left
[3] = tested on: Pseudomonas aeruginosa; assay: Antibacterial activity against Pseudomonas aeruginosa PDO300 assessed as reduction in viable persister cells in biofilm at 20 to 60 ug/ml after 18 hrs by drop plate method relative to control; format: functional
[4] = tested on: Pseudomonas aeruginosa; assay: Antibacterial activity against Pseudomonas aeruginosa PDO300 assessed as reduction in biofilm formation after 18 hrs by drop plate method; format: functional, organism-based
[5] = tested on: Pseudomonas aeruginosa; assay: Antibacterial activity against Pseudomonas aeruginosa PDO300 assessed as persister cell death in viable biofilm at 5 to 30 ug/mL after 24 hrs by drop plate method; format: functional, organism-based
[6] = tested on: Pseudomonas aeruginosa; assay: Antibacterial activity against Pseudomonas aeruginosa PDO300 assessed as viable persister cells at 30 ug/ml after 24 hrs by drop plate method; format: functional, organism-based
[7] = tested on: Pseudomonas aeruginosa; assay: Antibacterial activity against Pseudomonas aeruginosa PDO300 assessed as reduction in persistence up to 30 ug/ml after 5 hrs by drop plate method; format: functional, organism-based
[8] = tested on: Pseudomonas aeruginosa; assay: Antibacterial activity against Pseudomonas aeruginosa PDO300 assessed as growth inhibition at 5 to 30 ug/mL after 12 hrs; format: functional, organism-based
[9] = tested on: Pseudomonas aeruginosa; assay: Antibacterial activity against Pseudomonas aeruginosa PDO300 assessed as reduction in viable persister cells in planktonic population of biofilm after 18 hrs by drop plate method; format: functional, organism-based
[10] = tested on: Pseudomonas aeruginosa; assay: Bactericidal activity against Pseudomonas aeruginosa PDO300 persister cells at 5 to 50 ug/ml after 2 hrs by drop plate method; format: functional, organism-based
[11] = tested on: Pseudomonas aeruginosa; assay: Antibacterial activity against Pseudomonas aeruginosa PDO300 assessed as reduction in persister cells in biofilm after 18 hrs by drop plate method; format: functional, organism-based
[12] = tested on: Pseudomonas aeruginosa; assay: Antibacterial activity against Pseudomonas aeruginosa PDO300 assessed as cell death in planktonic phase at 30 ug/ml after 24 hrs by drop plate method; format: functional, organism-based
[13] = tested on: Pseudomonas aeruginosa; assay: Bactericidal activity against Pseudomonas aeruginosa PDO300 persister cells at 5 ug/ml after 2 hrs by drop plate method; format: functional
[14] = tested on: Escherichia coli; assay: Antibacterial activity against Escherichia coli RP437 assessed as effect on persister cells at pH > 7; format: functional, organism-based
[15] = tested on: Pseudomonas aeruginosa; assay: Bactericidal activity against Pseudomonas aeruginosa PDO300 persister cells at 50 ug/ml after 2 hrs by drop plate method; format: functional, organism-based
[16] = tested on: Pseudomonas aeruginosa; assay: Antibacterial activity against Pseudomonas aeruginosa PDO300 assessed as cell viability up to 30 ug/ml after 5 hrs by drop plate method; format: functional, organism-based
[17] = tested on: Pseudomonas aeruginosa; assay: Antibacterial activity against Pseudomonas aeruginosa PDO300 assessed as reduction in persistence after 12 hrs by drop plate method; format: functional, organism-based
[18] = tested on: Pseudomonas aeruginosa; assay: Antibacterial activity against Pseudomonas aeruginosa PDO300 assessed as reduction in viable biofilm cells after 24 hrs by drop plate method; format: functional, organism-based
[19] = tested on: Pseudomonas aeruginosa; assay: Antibacterial activity against Pseudomonas aeruginosa PDO300 assessed as reduction in viable persister cells in planktonic population of biofilm at 60 ug/ml after 18 hrs by drop plate method relative to control; format: functional
[20] = tested on: Pseudomonas aeruginosa; assay: Antibacterial activity against Pseudomonas aeruginosa PDO300 assessed as viable biofilm cells at 30 ug/ml after 24 hrs by drop plate method (reference value: 0.0005 +/- 0.0008%); format: functional
[21] = tested on: Pseudomonas aeruginosa; assay: Antibacterial activity against Pseudomonas aeruginosa PDO300 assessed as reduction in planktonic cells in biofilm after 18 hrs by drop plate method; format: functional, organism-based
[22] = tested on: Pseudomonas aeruginosa; assay: Antibacterial activity against Pseudomonas aeruginosa PDO300 assessed as effect on total number of suspended planktonic cells at 60 ug/ml after 18 hrs by drop plate method relative to control; format: functional, organism-based

CC1=C(Br)/C(=C/Br)OC1=O
Activity [1]: 91.6%
Activity [2]: 88.5%
Activity [3]: 98.3%
Activity [4]: Dose-dependent effect
Activity [5]: Active
Activity [6]: Active
Activity [7]: inactive
growth inhibition (GI) [8]: inactive
Activity [9]: Dose-dependent effect
Activity [10]: Active
Activity [11]: Dose-dependent effect
Activity [12]: Active
Activity [13]: 80.9%
Activity [14]: Active
Activity [15]: Active
Activity [16]: inactive
Activity [17]: Dose-dependent effect
Activity [18]: Dose-dependent effect
Activity [19]: 96.5%
Activity [20]: 0.01%
Activity [21]: inactive
Activity [22]: inactive
